Measured values: patent publication EP0375183A1, “Antiviral dimers and trimers” (SCHERING CORPORATION, priority 1988, dated 1990)

Tested on: strain HIV-III of the Human Immunodeficiency virus (HIV)
Test: Protection of HIV-infected human lymphocyte cell lines from virus destruction (syncytia formation, cell rounding/cytopathology), microtiter test
Assay type: cell-based
Details: Human immunodeficiency virus 1, Lymphocyte, continuous cell lines derived from human lymphocytes infected with HIV, incubated 7 to 14 days, microscopic inspection, tests (a) and (b), read-out: Protection of Cells
Protocol: Continuous cell lines derived from human lymphocytes are grown in a microtiter test system. The cells are infected with strain […] of the Human Immunodeficiency virus (HIV), a standard strain isolated from a patient with Acquired Immune Deficiency Syndrome (AIDS). The treated cells are incubated for 7 to 14 days, and the treated cells are inspected by microscope to determine (a) prevention of synctia (cell to cell fusion) formation induced by HIV, or (b) prevention of cell rounding and prevention of HIV caused cytopathology. Such inspections indicate the ability of the compound to prevent cell killing by the virus. Additionally, biochemical determination of the cell media is made to ascertain the ability of the compound to prevent formation of viral products (reverse transcriptase, p24 antigen, or other products), and prevention of formation of more HIV itself.
The control refers to the treatment without a compound of the present invention.

Cc1cn([C@H]2C[C@H](N=[N+]=[N-])[C@@H](COP(=O)(O)OCC3CCC(n4cnc5c(N)ncnc54)C3)O2)c(=O)[nH]c1=O (some centres unmarked) [Compound of Example 1, 5′-O-[[[3-(6-Amino-9H-purin-9-yl)cyclopentyl]methoxy]hydroxyphosphinyl]-3′-azido-3′-deoxy-thymidine]
inhibition at 32 µg/mL (Concentration 32 µg/ml): 100% | inhibition at 100 µg/mL (Concentration 100 µg/ml): 100%
